# Reference: ChEMBL document CHEMBL5352401, “Novel cudraisoflavone J derivatives as potent neuroprotective agents for the treatment of Parkinson's disease via the activation of Nrf2/HO-1 signaling” (Eur J Med Chem, 2022)
# The source made the active and inactive calls. No cut-off for these calls is given here.
# Tests used:
# PC-12 [1] = test: Cytotoxicity in rat PC-12 cells assessed as cell viability measured at 10 to 30 uM for 24 hrs by MTT assay; format: functional, cell-based; details: dose 10-30 µM
# PC-12 [2] = test: Neuroprotective activity against 6-OHDA-induced cytotoxicity in rat PC-12 cells at 10 to 30 uM for 4 hrs followed by exposure to 6-OHDA measured after 24 hrs by MTT assay; format: functional, cell-based; details: dose 10-30 µM, time 28.0 hrs
# PC-12 [3] = test: Neuroprotective activity against 6-OHDA-induced cytotoxicity in rat PC-12 cells for 4 hrs followed by exposure to 6-OHDA measured after 24 hrs by MTT assay; format: functional, cell-based; details: dose 0.1-30 µM, time 28.0 hrs
# PC-12 [4] = test: Cytotoxicity in rat PC-12 cells assessed as cell viability incubated for 24 hrs by MTT assay; format: functional, cell-based; details: PC-12, 24 h
# [5] = Neurotoxicity in rotenone induced at rat PC-12 cells assessed as cell viability at 30 uM pretreated for 4 hrs followed by rotenone addition measured after 24 hrs by MTT assay (reference value: 53.4 +/- 2.6%); format: toxicity, cell-based; details: time 28 hrs, read-out: Activity
# [6] = Neurotoxicity in rotenone induced at rat PC-12 cells assessed as cell viability pretreated with compound for 4 hrs followed by rotenone addition measured after 24 hrs by MTT assay; format: toxicity, cell-based
# Brain = test: Antioxidant activity in Fe2+/L-ascorbic acid induced Sprague-Dawley rat brain homogenate assessed as inhibition of lipid peroxide production measured at 100 uM after 60 mins by microplate reader method relative to control; format: functional, tissue-based
# PC-12 [7] = test: Antiinflammatory activity in 6-OHDA-induced cytotoxicity in rat PC-12 cells assessed as reduction of ROS production pretreated at 10 to 30 uM for 4 hrs followed by 6-OHDA addition treated for 6 hrs measured after 1 hr of H2-DCFDA addition by measuring fluorescence; format: functional, cell-based; details: dose 10-30 µM, time 11.0 hrs
# PC-12 [8] = test: Antiinflammatory activity in rotenone induced cytotoxicity in rat PC-12 cells assessed as reduction of ROS production pretreated at 10 to 30 uM for 4 hrs followed by rotenone addition treated for 6 hrs measured after 1 hr of H2-DCFDA addition by measuring fluorescence; format: functional, cell-based; details: dose 10-30 µM, time 11.0 hrs
# PC-12 [9] = test: Antiinflammatory activity in 6-OHDA-induced cytotoxicity in rat PC-12 cells assessed as reduction of fluorescence signal pretreated at 10 to 30 uM for 4 hrs followed by 6-OHDA addition treated for 6 hrs measured after 1 hr of H2-DCFDA addition by spectrophotometric analysis; format: functional, cell-based; details: dose 10-30 µM, time 11.0 hrs
# PC-12 [10] = test: Antiinflammatory activity in rotenone induced cytotoxicity in rat PC-12 cells assessed as reduction of fluorescence signal pretreated at 10 to 30 uM for 4 hrs followed by rotenone addition treated for 6 hrs measured after 1 hr of H2-DCFDA addition by spectrophotometric analysis; format: functional, cell-based; details: dose 10-30 µM, time 11.0 hrs
# PC-12 [11] = test: Neuroprotective activity in rat PC-12 cells assessed as upregulation of HO-1 expression measured at 10 uM after 3 to 6 hrs by immunoblotting analysis; format: functional, cell-based; details: time 3-6 hrs
# PC-12 [12] = test: Neuroprotective activity in rat PC-12 cells assessed as upregulation of HO-1 expression measured for 6 hrs by immunoblotting analysis; format: functional, cell-based; details: dose 1-30 µM
# PC-12 [13] = test: Neuroprotective activity in rat PC-12 cells assessed as fold increase in upregulation of HO-1 expression measured at 30 uM for 6 hrs by immunoblotting analysis; format: functional
# PC-12 [14] = test: Cytotoxicity in 6-OHDA induced rat PC-12 cells assessed as cell viability pretreated with ZnPP for 30 mins followed by compound addition at 10 uM for 4 hrs and measured after 24 hrs of […] addition by MTT assay; format: functional, cell-based; details: time 28.0 hrs
# [15] = molecular target: T1, Nuclear factor erythroid 2-related factor 2 (Rattus norvegicus) (UniProt O54968); test: Induction of Nrf2 nuclear translocation in rat PC12 cells at 10 uM for 3 hrs by Western blotting analysis; format: cell-based; details: PC-12, filed as activator
# T1 sequence (whole entry): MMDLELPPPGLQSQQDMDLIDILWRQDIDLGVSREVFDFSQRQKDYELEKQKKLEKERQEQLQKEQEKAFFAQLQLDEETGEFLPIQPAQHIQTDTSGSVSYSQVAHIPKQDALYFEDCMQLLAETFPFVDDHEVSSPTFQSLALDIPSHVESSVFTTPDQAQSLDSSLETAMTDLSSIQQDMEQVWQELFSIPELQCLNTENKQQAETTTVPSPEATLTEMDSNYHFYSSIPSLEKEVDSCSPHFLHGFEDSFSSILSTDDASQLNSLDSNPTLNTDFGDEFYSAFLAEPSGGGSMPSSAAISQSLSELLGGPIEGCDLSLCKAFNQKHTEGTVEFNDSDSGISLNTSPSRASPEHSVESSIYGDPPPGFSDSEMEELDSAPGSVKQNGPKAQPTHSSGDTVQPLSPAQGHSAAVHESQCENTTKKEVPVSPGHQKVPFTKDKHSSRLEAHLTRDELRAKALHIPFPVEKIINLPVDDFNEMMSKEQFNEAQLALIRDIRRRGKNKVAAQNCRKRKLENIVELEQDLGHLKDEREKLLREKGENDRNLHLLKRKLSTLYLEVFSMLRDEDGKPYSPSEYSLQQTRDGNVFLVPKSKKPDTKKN
# PC-12 [16] = test: Upregulation of HO-1 expression in si-RNA mediated Nrf2 knock down rat PC-12 cells measured by immunoblotting analysis; format: functional, cell-based
# [17] = molecular target: KEAP1/NRF2 (Rattus norvegicus) (UniProt O54968+P57790); test: Inhibition of Nrf2-Keap1 protein-protein interaction in rat PC-12 cells by Western blotting analysis; format: cell-based
# [18] = molecular target: T1, Nuclear factor erythroid 2-related factor 2 (Rattus norvegicus); test: Induction of Nrf2 nuclear translocation in rat PC12 cells assessed as increase in phosphorylation of ERK1 at 10 uM for 2 to 3 hrs by Western blotting analysis; format: cell-based; details: PC-12, filed as activator, time 2-3 hrs
# [19] = molecular target: T1, Nuclear factor erythroid 2-related factor 2 (Rattus norvegicus); test: Induction of Nrf2 nuclear translocation in rat PC12 cells assessed as increase in phosphorylation of ERK2 at 10 uM for 2 to 3 hrs by Western blotting analysis; format: cell-based; details: PC-12, filed as activator, time 2-3 hrs
# [20] = molecular target: T1, Nuclear factor erythroid 2-related factor 2 (Rattus norvegicus); test: Induction of Nrf2 nuclear translocation in rat PC12 cells assessed as increase in phosphorylation of JNK at 10 uM for 2 to 3 hrs by Western blotting analysis; format: cell-based; details: PC-12, filed as activator, time 2-3 hrs
# [21] = molecular target: T1, Nuclear factor erythroid 2-related factor 2 (Rattus norvegicus); test: Induction of Nrf2 nuclear translocation in rat PC12 cells assessed as increase in phosphorylation of AKT at 10 uM for 2 to 3 hrs by Western blotting analysis; format: cell-based; details: PC-12, filed as activator, time 2-3 hrs
# [22] = molecular target: T1, Nuclear factor erythroid 2-related factor 2 (Rattus norvegicus); test: Induction of Nrf2 nuclear translocation in rat PC12 cells assessed as change in phosphorylation of p38 MAPK level at 10 uM for 2 to 3 hrs by Western blotting analysis; format: cell-based; details: PC-12, time 2-3 hrs
# [23] = molecular target: T1, Nuclear factor erythroid 2-related factor 2 (Rattus norvegicus); test: Induction of Nrf2 nuclear translocation in rat PC12 cells assessed as increase in phosphorylation of ERK1 pretreated with U0126 for 2 hrs followed by compound addition at 10 uM for 2 to 3 hrs by Western blotting analysis; format: cell-based; details: PC-12, time 2-3 hrs
# [24] = molecular target: T1, Nuclear factor erythroid 2-related factor 2 (Rattus norvegicus); test: Induction of Nrf2 nuclear translocation in rat PC12 cells assessed as increase in phosphorylation of ERK2 pretreated with U0126 for 2 hrs followed by compound addition at 10 uM for 2 to 3 hrs by Western blotting analysis; format: cell-based; details: PC-12, time 2-3 hrs
# [25] = molecular target: T1, Nuclear factor erythroid 2-related factor 2 (Rattus norvegicus); test: Induction of Nrf2 nuclear translocation in rat PC12 cells assessed as increase in phosphorylation of JNK pretreated with SP600125 for 2 hrs followed by compound addition at 10 uM for 2 to 3 hrs by Western blotting analysis; format: cell-based; details: PC-12, time 2-3 hrs
# [26] = molecular target: T1, Nuclear factor erythroid 2-related factor 2 (Rattus norvegicus); test: Induction of Nrf2 nuclear translocation in rat PC12 cells assessed as increase in phosphorylation of Akt pretreated with LY294002 for 2 hrs followed by compound addition at 10 uM for 2 to 3 hrs by Western blotting analysis; format: cell-based; details: PC-12, time 2-3 hrs
# [27] = molecular target: T1, Nuclear factor erythroid 2-related factor 2 (Rattus norvegicus); test: Inhibition of Nrf2 nuclear translocation in rat PC12 cells assessed as increase in phosphorylation of p38 MAPK pretreated with SB203580 for 2 hrs followed by compound addition at 10 uM for 2 to 3 hrs by Western blotting analysis; format: cell-based; details: PC-12, time 2-3 hrs
# PC-12 [28] = test: Reversal of upregulation of HO-1 in rat PC-12 cells pretreated with U0126 for 2 hrs followed by compound addition at 10 uM for 2 to 3 hrs by Western blotting analysis; format: functional, cell-based; details: time 2-3 hrs
# PC-12 [29] = test: Reversal of upregulation of HO-1 in rat PC-12 cells pretreated with SP600125 for 2 hrs followed by compound addition at 10 uM for 2 to 3 hrs by Western blotting analysis; format: functional, cell-based; details: time 2-3 hrs
# PC-12 [30] = test: Reversal of upregulation of HO-1 in rat PC-12 cells pretreated with LY294002 for 2 hrs followed by compound addition at 10 uM for 2 to 3 hrs by Western blotting analysis; format: functional, cell-based; details: time 2-3 hrs
# PC-12 [31] = test: Neuroprotective activity against 6-OHDA-induced cytotoxicity in rat PC-12 cells at 30 uM for 4 hrs followed by exposure to 6-OHDA measured after 24 hrs by MTT assay; format: functional, cell-based; details: time 28.0 hrs
# PC-12 [32] = test: Neuroprotective activity against 6-OHDA-induced cytotoxicity in rat PC-12 cells at 0.1 to 30 uM for 4 hrs followed by exposure to 6-OHDA measured after 24 hrs by MTT assay relative to control; format: functional; details: dose 0.1-30 µM, time 28 hrs
# PC-12 [33] = test: Cytotoxicity in rat PC-12 cells assessed as cell viability incubated at 0.1 to 30 uM for 24 hrs by MTT assay relative to control; format: functional; details: dose 0.1-30 µM
# PC-12 [34] = test: Cytotoxicity in rat PC-12 cells assessed as cell viability measured at 30 uM for 24 hrs by MTT assay; format: functional, cell-based
smiles,measurement,setting,value
CC1(C)Oc2c(c(O)cc3occ(-c4ccc(F)cc4F)c(=O)c23)CC1O (centres undefined),Activity,PC-12 [1],Active
same,Activity,PC-12 [2],Active
same,Activity,PC-12 [3],Dose-Dependent Effect
same,IC50,PC-12 [4],4.2 µM
same,viability at 30 µM,[5],≤ 79.9%
same,IC50,[6],4.7 µM
same,inhibition,Brain,50.5%
same,Activity,PC-12 [7],Active
same,Activity,PC-12 [8],Active
same,Activity,PC-12 [9],Active
same,Activity,PC-12 [10],Active
same,Activity,PC-12 [11],Active
same,Activity,PC-12 [12],Dose-Dependent Effect
same,fold change (FC),PC-12 [13],1.5
same,Activity,PC-12 [14],Active
same,Activity,[15],Active
same,Activity,PC-12 [16],inactive
same,inhibition,[17],Active
same,Activity,[18],Active
same,Activity,[19],Active
same,Activity,[20],Active
same,Activity,[21],Active
same,Activity,[22],inactive
same,Activity,[23],inactive
same,Activity,[24],inactive
same,Activity,[25],inactive
same,Activity,[26],inactive
same,inhibition,[27],Active
same,Activity,PC-12 [28],Active
same,Activity,PC-12 [29],Active
same,Activity,PC-12 [30],Active
CC1(C)Oc2c(c(O)cc3occ(-c4ccccc4)c(=O)c23)CC1O (centres undefined),Activity,PC-12 [1],inactive
same,Activity,PC-12 [2],Active
same,Activity,PC-12 [31],Active
same,Activity,PC-12 [3],Dose-Dependent Effect
same,inhibition (INH),PC-12 [32],49.9%
same,Activity,PC-12 [33],75%
Cc1cc(C)cc(-c2coc3cc(O)c4c(c3c2=O)OC(C)(C)C(O)C4)c1 (centres undefined),Activity,PC-12 [1],Active
same,Activity,PC-12 [31],Active
same,Activity,PC-12 [3],Dose-Dependent Effect
same,inhibition (INH),PC-12 [32],45.4%
same,Activity,PC-12 [33],73%
CCOc1ccc(-c2coc3cc4c(c(OCC)c3c2=O)C=CC(C)(C)O4)cc1,Activity,PC-12 [34],Active
CC1(C)Oc2c(c(O)cc3occ(-c4ccc(F)cc4)c(=O)c23)CC1O (centres undefined),Activity,PC-12 [1],Active
